# Literature values in patent US20240018135A1, “COMPOUND HAVING INHIBITORY ACTIVITY AGAINST O-GLUSACASE AND USE THEREOF” (MEDIFRON DBT INC., priority 2020, published 2024).
# Biological target: bacterial homolog of O-GlcNAcase from Clostridium perfringens (Clostridium perfringens (strain 13 / Type A), UniProt Q8XL08)
# Conditions: cited from earlier work
# Chain of bacterial homolog of O-GlcNAcase from Clostridium perfringens (Q8XL08 31-1001 limits assumed): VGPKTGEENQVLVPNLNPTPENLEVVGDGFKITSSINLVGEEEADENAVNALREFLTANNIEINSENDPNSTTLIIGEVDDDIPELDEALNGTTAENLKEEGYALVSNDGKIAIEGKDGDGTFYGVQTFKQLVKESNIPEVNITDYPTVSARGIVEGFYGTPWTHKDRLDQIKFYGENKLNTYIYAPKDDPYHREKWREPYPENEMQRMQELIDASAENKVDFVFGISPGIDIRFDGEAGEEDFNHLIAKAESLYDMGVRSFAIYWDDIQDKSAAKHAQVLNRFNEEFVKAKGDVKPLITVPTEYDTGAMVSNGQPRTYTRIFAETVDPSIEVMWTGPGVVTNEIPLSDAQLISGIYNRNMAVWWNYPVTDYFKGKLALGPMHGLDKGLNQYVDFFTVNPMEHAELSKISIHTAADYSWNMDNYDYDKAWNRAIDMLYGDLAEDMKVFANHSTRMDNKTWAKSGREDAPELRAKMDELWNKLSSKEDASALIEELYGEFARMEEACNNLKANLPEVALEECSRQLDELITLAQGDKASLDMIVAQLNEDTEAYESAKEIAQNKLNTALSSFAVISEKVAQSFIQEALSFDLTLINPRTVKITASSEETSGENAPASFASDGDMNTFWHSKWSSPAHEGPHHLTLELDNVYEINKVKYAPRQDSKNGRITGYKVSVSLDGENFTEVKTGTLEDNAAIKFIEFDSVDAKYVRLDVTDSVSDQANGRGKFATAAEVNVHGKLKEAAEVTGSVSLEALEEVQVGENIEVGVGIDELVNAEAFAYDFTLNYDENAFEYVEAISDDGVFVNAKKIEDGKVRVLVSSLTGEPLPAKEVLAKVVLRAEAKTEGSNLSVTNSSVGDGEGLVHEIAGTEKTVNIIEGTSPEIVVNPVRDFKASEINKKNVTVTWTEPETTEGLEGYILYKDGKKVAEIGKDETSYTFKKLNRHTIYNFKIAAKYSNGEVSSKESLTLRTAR
compound,measurement,value
CC(C)C(=O)N[C@H]1c2nc(CCc3ccccc3)cn2[C@H](CO)[C@@H](O)[C@@H]1O [GlcNAcstatin],efficacy,picomolar
